# Like-named read-outs stand apart in the source and are kept apart here.
# Tests used:
# [1] = tested on: striatal tyrosine hydroxylase; conditions: cited from earlier work
# [2] = tested on: phenylalanine hydroxylase; conditions: cited from earlier work
# [3] = Near-saturation concentration at neutral pH; assay type: physicochemical; conditions: organic solvent or mixture, in 0.5 M 2-mercaptoethanol, room temperature, read-out: concentration of an almost saturated solution
# Experimental: 2-Amino-4-hydroxy-6-methyl-6-phenyl-5,6,7,8-tetrahydropteridine ([…]): The above dry quinoid-dihydropteridine was reduced in near quantitative yield by addition of 0.5 M 2-mercaptoethanol at room temperature, such that the final concentration of product was approximately 10 mM (an almost saturated solution at neutral pH). To obtain the pure dihydrochloride salt, this solution was rotary evaporated to an oil which was dissolved in 2M HCl in methanol and 4 volumes of ethyl ether added, and the precipitate collected by centrifugation and washed twice by resuspension in fresh ethyl ether, followed by centrifugation.
# [4] = Spectrophotometric pKa determination of quinoid dihydropterin; assay type: physicochemical; conditions: sodium succinate buffer; transition between neutral and monocationic species; sodium succinate buffers, I=0.01, 25°C
# Experimental: pKa. The pKa for the transition between the neutral and monocationic species of q-6,6-Me₂PH₂ was determined spectrophotometrically. A concentrated stock solution of quinoid, free of elemental bromine, in n-propanol was diluted to 0.1 mM into a series of sodium succinate buffers at constant ionic strength (I=0.01). Spectra, background corrected for each buffer individually, were acquired on a Perkin-Elmer 552 spectrophotometer thermostated to 25°C.
# [5] = molecular target: T1, phenylalanine hydroxylase (Rattus norvegicus, UniProt P04176); test: Inhibition of phenylalanine hydroxylase by dihydropterins; assay type: biochemical; conditions: concentrations up to 0.4 mM; 6,6-Me2PH4 as cofactor 0.05-0.3 mM
# T1 construct: from tissue
# T1 sequence (P04176 1-453): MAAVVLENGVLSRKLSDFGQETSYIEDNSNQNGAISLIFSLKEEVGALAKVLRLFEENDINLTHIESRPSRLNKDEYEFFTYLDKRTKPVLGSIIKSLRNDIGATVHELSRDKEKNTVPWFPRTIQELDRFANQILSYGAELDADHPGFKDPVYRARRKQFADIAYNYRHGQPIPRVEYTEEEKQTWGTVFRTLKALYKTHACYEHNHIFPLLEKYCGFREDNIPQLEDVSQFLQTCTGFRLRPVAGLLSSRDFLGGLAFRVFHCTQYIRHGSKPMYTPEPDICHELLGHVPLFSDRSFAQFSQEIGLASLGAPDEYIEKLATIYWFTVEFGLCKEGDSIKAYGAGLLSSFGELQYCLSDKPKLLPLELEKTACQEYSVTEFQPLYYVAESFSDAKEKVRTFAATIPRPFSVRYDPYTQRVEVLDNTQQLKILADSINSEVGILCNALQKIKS
# Experimental: Measurements were made under standard assay conditions with cofactor concentration varied between 0.05 and 0.3 mM. Stock solutions of 6,6-Me₂PH₂ were in 0.1 M assay buffer.
# Standard assay conditions, with 6-MePH₄ as cofactor over a range of 0.05 mM to 0.3 mM, were employed.
# [6] = molecular target: T2, Beef Liver Dihydropteridine Reductase (Bos taurus, UniProt Q3T0Z7); test: Quinoid dihydropterin as substrate for dihydropteridine reductase (beef liver); assay type: biochemical
# T2 construct: from tissue; host or cells: beef liver
# T2 sequence (Q3T0Z7 1-242): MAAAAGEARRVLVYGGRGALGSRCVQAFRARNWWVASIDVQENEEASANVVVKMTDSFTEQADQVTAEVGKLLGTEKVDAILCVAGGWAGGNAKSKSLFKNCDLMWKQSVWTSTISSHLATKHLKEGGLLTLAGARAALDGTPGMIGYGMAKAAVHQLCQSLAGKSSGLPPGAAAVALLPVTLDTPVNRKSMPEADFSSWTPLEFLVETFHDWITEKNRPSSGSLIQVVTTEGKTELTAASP
# Experimental: (§1) The quinoid was generated from 6,6-Me₂PH₄, as outlined previously. […] Peroxidase (6 units/ml final volume) was temperature equilibrated in 0.1 M Tris·HCl, pH 7.4, at 27° for 5 minutes. H₂O₂ (1.2 mM final concentration) was then added, followed by 6,6-Me₂PH₄. […] At 5 minutes, 6,6-Me₂PH₄ was introduced and monitored at 340 nm. […] Reaction was then initiated with dihydropteridine reductase (0.01 units/ml). Rates were calculated from the enzyme dependent decrease in O.D. at 340 nm, using an extinction coefficient of 9.8 for the chemically synthesized substrate and 6.2 for the peroxidase- and phenylalanine-hydroxylase-containing reactions in which the pterin is maintained in the quinoid form.
# [7] = Stability (decay) of quinoid-6,6-Me2PH2 monitored spectrophotometrically; assay type: physicochemical
# Experimental: Stability. The decay of q-6,6-Me₂PH₂ in a variety of environments was monitored spectrophotometrically. […] In water, a plateau of highest stability is observed near neutral pH. At pH 6.8, solutions kept on ice have a half-life greater than 100 hours. […] Loss of quinoid is somewhat increased in acid and greatly accelerated in base. […] This process is not affected by the presence of oxygen.
# [8] = Non-enzymatic reduction of quinoid-6,6-Me2PH2 by physiological reducing agents; assay type: physicochemical; conditions: 0.1 M Tris·HCl, pH 7.4 at 37°
# Experimental: Non-Enzymatic Reduction of Quinoid-6,6-Me₂PH₂ under Physiological Conditions. Aromatic amino acid hydroxylase cofactor analogs which are relatively stable in the quinoid-dihydro form may have therapeutic potential for treatment of dihydropteridine reductase deficiency. Thus, it was of interest to determine the rate at which quinoid is reduced to the tetrahydropterin by various physiological reducing agents. Rates were measured in 0.1 M Tris·HCl, pH 7.4 at 37°, from the decrease in absorbance at 340 nm. A reaction first order in each component was observed. With NADH, NADPH and absorbic acid, the rate of reduction (k=660 M⁻¹min⁻¹) was the same. The rate with cysteine was about four times slower (k=160 M⁻¹min⁻¹).
# [9] = molecular target: T3, Sheep Liver Dihydropteridine Reductase (Ovis aries, UniProt A0ACI6QPJ5); test: Quinoid dihydropterin as substrate for dihydropteridine reductase (sheep liver); assay type: biochemical
# T3 sequence (A0ACI6QPJ5 46-254): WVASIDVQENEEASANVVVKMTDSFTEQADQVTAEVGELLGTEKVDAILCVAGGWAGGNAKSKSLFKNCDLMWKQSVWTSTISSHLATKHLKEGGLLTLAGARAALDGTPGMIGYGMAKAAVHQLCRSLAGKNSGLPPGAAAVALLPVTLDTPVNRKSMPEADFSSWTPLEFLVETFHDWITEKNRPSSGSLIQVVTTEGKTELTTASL
# Experimental: as §1, with “6,6-Me₂PH₄. Conversion to q-6,6-Me₂PH₂, monitored at 340 nm, was complete within a few seconds. • (iii) Generation by phenylalanine hydroxylase:” for “6,6-Me₂PH₄.”, “nm. Conversion of 6,6-Me₂PH₄ to quinoid dihydropterin was complete in 1-7 minutes, depending on the concentration.” for “nm.”, “form. […] This Km was obtained regardless of the method of generation of the quinoid dihydropterin. The Vmax's were also the same for the dihydropteridine reductase catalyzed reduction of quinoid generated by any of the three methods (Table VI). Thus, the quinoid products of each procedure appear to behave equally.” for “form.”
# [10] = substrate produced by Bromine oxidation
# [11] = substrate produced by Phe hydroxylase + phe
smiles,measurement,setting,value
"Nc1nc2c(c(=O)[nH]1)NC(c1ccccc1)CN2 (centres unmarked) [Compound 6-Phenyl-PH4, 6-phenyltetrahydropterin]",increase of Vmax compared to tetrahydrobiopterin,[1],10 fold
same,decrease of Vmax compared to tetrahydrobiopterin,[2],10 fold
"CC1(c2ccccc2)CNc2nc(N)nc(O)c2N1 (centres unmarked) [6-Phenyl-6-Methyl-PH4, 2-Amino-4-hydroxy-6-methyl-6-phenyl-5,6,7,8-tetrahydropteridine]",solubility,[3],~10 mM
"CC1(C)CNC2=NC(N)=NC(=O)C2=N1 [Quinoid-6,6-Me2PH2, 2-Amino-6,6-dimethyl-4-hydroxyquinoid-dihydropteridine]",pKa,[4],5.15 ± 0.05
same,inhibition of purified phenylalanine hydroxylase,[5],No inhibition
same,Relative Vmax Beef,[6]; [10],1
same,Relative Vmax Beef,[6]; substrate produced by Peroxidase + H2O2,1
same,Relative Vmax Beef,[6]; [11],1
same,stability relative to the quinoid forms of 6-methyldihydropterin or dihydrobiopterin,[7],one to two orders of magnitude more stable
same,half-life,"[7]; 0.1 m tris-hcl, air, pH 7.4, pH 7.4 (0.1 M Tris·HCl), 27°C, air, read-out: t 1/2 (converted)",240 min
same,half-life,"[7]; 0.1 m tris-hcl, air, pH 7.4, pH 7.4 (0.1 M Tris·HCl), 37°C, air, read-out: t 1/2 (converted)",75 min
same,half-life,"[7]; 0.1 m tris-hcl, argon, pH 7.4, pH 7.4 (0.1 M Tris·HCl), 37°C, argon, read-out: t 1/2 (converted)",75 min
same,half-life,"[7]; 1n hcl, air, pH 0, pH 0 (1N HCl), 37°C, air, read-out: t 1/2 (converted)",45 min
same,half-life,"[7]; 1n hcl, argon, pH 0, pH 0 (1N HCl), 37°C, argon, read-out: t 1/2 (converted)",45 min
same,half-life,[7]; aerated (CH3)2SO at -80°C,several weeks
same,half-life,"[7]; dmso, aerated (CH3)2SO at ambient temperature, read-out: half-life (converted)",~2880 min
same,"rearrangement to a 7,8-dihydropterin",[7]; in contrast to quinoid dihydropterin monosubstituted at C6,"does not appear to rearrange to a 7,8-dihydropterin"
same,t 1/2,"[7]; pH 6.8 (Tris-MES 0.1M), 0°C (on ice), air",104 h
same,storage stability of the dry powder,[7]; stored desiccated for several months at -80°C,no detectable change
same,half-life,"[7]; tris-mes 0.1 m, air, pH 6.8, pH 6.8 (Tris-MES 0.1M), 0°C (on ice), air, read-out: t 1/2 (converted)",> 6000 min
same,rate of reduction (k),[8]; with NADH,660 M⁻¹ min⁻¹
same,rate of reduction (k),[8]; with NADPH,660 M⁻¹ min⁻¹
same,rate of reduction (k),[8]; with absorbic acid,660 M⁻¹ min⁻¹
same,rate of reduction (k),[8]; with cysteine,160 M⁻¹ min⁻¹
same,Relative Vmax Sheep,[9]; [10],1
same,Relative Vmax Sheep,[9]; [11],1

# Source: patent EP0138995B1, “REGULATION OF ENZYMES WHICH UTILIZE TETRAHYDROBIOPTERIN OR TETRAHYDROFOLATE COFACTORS WITH 6, 6-DISUBSTITUTED-TETRAHYDROPTERIDINES” (South Alabama Medical Science Foundation, priority 1983, dated 1984)
